In brackets after ≈: the same amount, converted by molar mass. Read-outs that look alike come from different tables or passages of the source.
Legend:
[1] = tested on: A. baumannii 1403 biofilm; assay: biofilm eradication determination assay, strain 1403; assay type: cell-based, Acinetobacter baumannii; conditions: 90% biofilm eradication, Table 8
Method: (§1) These assays were performed as described by us previously,^26,24 as follows. Each of the A. baumannii strains were grown overnight in Mueller Hinton Broth (MHB). The next day these were used to seed fresh MHB to an OD600 of 0.5, with 150 μL then added to the wells of a 96 well plate and grown for 24 hours at 37° C. After 24 hours, the planktonic bacteria were carefully removed and fresh MHB was added with increasing concentrations of lead quinazolines. After incubation at 37° C. for 24 hours, planktonic cells were removed and biofilms were washed three times with phosphate buffered saline (PBS). Biofilms were then resuspended in PBS and plated for cell viability on tryptic soy agar. Biofilm recovery was assessed compared to no drug controls, and determined as percent eradication. This was used to determine MBEC90 values (Minimal Biofilm Eradication Concentration), where the viability of cells within the biofilm was reduced by 90%.

[2] = tested on: A. baumannii 1646; assay: MIC assay, strain 1646; assay type: cell-based, Acinetobacter baumannii
Method: (§2) MIC and MBC assays were performed in this study as documented by us previously.^17,23,24,25 The A. baumannii strains used are detailed in Table 7.

[3] = tested on: A. baumannii 1403; assay: MIC assay, strain 1403; assay type: cell-based, Acinetobacter baumannii; conditions: strain 1403; for MIC: Acinetobacter baumannii
Method: as §2

[4] = tested on: A. baumannii 1651; assay: minimal bactericidal concentration (MBC) assay, strain 1651; assay type: cell-based; conditions: Acinetobacter baumannii, Table 8, read-out: MBC90 1651
Excerpt: (§3) Lead quinazolines 4, 5, 26, 29, 27, and 30 were selected to be further evaluated for antimicrobial effects. The first assay utilized was a minimal bactericidal concentration (MBC) assay, to assess whether leads compounds were bacteriostatic or bactericidal. The six lead agents were screened to identify their MBC90 towards each of the six A. baumannii isolates used in the SAR studies (Table 8), however for simplicity only the representative data for isolate 1646 is detailed below (Table 6). […] Further to this, we were able to obtain complete eradication of bacterial growth for these two compounds at 1 μM for 24 and 5 μM for 25.
as §2

[5] = tested on: A. baumannii 1649; assay: MIC assay, strain 1649; assay type: cell-based, Acinetobacter baumannii; conditions: strain 1649
Method: as §2

[6] = tested on: A. baumannii 1403; assay: minimal bactericidal concentration (MBC) assay, strain 1403; assay type: cell-based; conditions: Acinetobacter baumannii, Table 8, read-out: MBC90 1403
Excerpt: as §3, §2

[7] = tested on: A. baumannii 1649; assay: minimal bactericidal concentration (MBC) assay, strain 1649; assay type: cell-based; conditions: Acinetobacter baumannii, Table 8, read-out: MBC90 1649
Excerpt: as §3, §2

[8] = tested on: A. baumannii 1650 biofilm; assay: biofilm eradication determination assay, strain 1650; assay type: cell-based, Acinetobacter baumannii; conditions: 90% biofilm eradication, Table 8
Method: as §1

In the case of `CNc1nc(NCc2ccccc2)nc2ccc(C)cc12` [Compound 5, N^2-Benzyl-N^4,6-dimethylquinazoline-2,4-diamine], the “MBEC90 1403” value [1] is reported as 13 µM, the MIC ([2]; Acinetobacter baumannii, Table 6, representative data for isolate 1646, read-out: MIC) is reported as 1 µM (≈ 0.278 µg/mL) and the MIC ([2]; Acinetobacter baumannii, strain 1646, Table 2, read-out: 1646 MIC) is reported as 2 µM (≈ 0.557 µg/mL). It also gave an MIC ([2]; Acinetobacter baumannii, strain 1646, lead quinazolines, Table 8, read-out: MIC 1646) of 1 µM (≈ 0.278 µg/mL), an MIC ([2]; strain 1646, Tables 1, 3, 4, 5 and footnotes, read-out: 1646 MIC) of 2 µM (≈ 0.557 µg/mL) and an MIC ([3]; Tables 1, 3, 4, 5 and footnotes, read-out: 1403 MIC) of 10 µM (≈ 2.78 µg/mL). The MIC ([3]; lead quinazolines, Table 8, read-out: MIC 1403) was 10 µM (≈ 2.78 µg/mL), the “1403 MIC” value ([3]; Table 2) was 10 μm and the MBC [4] was 1.5 µM (≈ 0.418 µg/mL). It also gave an MIC ([5]; Acinetobacter baumannii, Table 2, read-out: 1649 MIC) of 25 µM (≈ 6.96 µg/mL), an MIC ([5]; Acinetobacter baumannii, lead quinazolines, Table 8, read-out: MIC 1649) of 21 µM (≈ 5.85 µg/mL) and an MIC ([5]; Tables 1, 3, 4, 5 and footnotes, read-out: 1649 MIC) of 25 µM (≈ 6.96 µg/mL). For the same compound, the MBC [6] was 30 µM (≈ 8.35 µg/mL), the MBC [7] was 9.3 µM (≈ 2.59 µg/mL) and the “MBEC90 1650” value [8] was 21 µM.
